Activity calls are given as the source filed them. The rule behind the calls is not given here.
Experiments:
[1] = tested on: INS1; assay: Cytotoxicity against rat INS1 cells assessed as reduction in cell viability at 2.5 to 10 uM incubated for 24 hrs by MTT assay; assay type: toxicity, cell-based; details: ins1, 24 h, dose 2.5-10 µM
[2] = Induction of glucose stimulated insulin secretion in rat INS1 cells assessed as increase in insulin level at 10 uM incubated for 1 hr; assay type: functional
[3] = Induction of glucose stimulated insulin secretion in rat INS1 cells assessed as increase in insulin level at 5 uM incubated for 1 hr; assay type: functional
[4] = tested on: INS1; assay: Upregulation of IRS-2 protein expression in rat INS1 cells at 10 uM incubated for 24 hrs by Western blot analysis; assay type: functional, cell-based
[5] = tested on: INS1; assay: Upregulation of PI3K protein expression in rat INS1 cells at 10 uM incubated for 24 hrs by Western blot analysis; assay type: functional, cell-based
[6] = tested on: INS1; assay: Upregulation of PPARgamma protein expression in rat INS1 cells at 10 uM incubated for 24 hrs by Western blot analysis; assay type: functional, cell-based
[7] = tested on: INS1; assay: Upregulation of AKT protein expression in rat INS1 cells at 10 uM incubated for 24 hrs by Western blot analysis; assay type: functional, cell-based
[8] = tested on: INS1; assay: Upregulation of PDX-1 protein expression in rat INS1 cells at 10 uM incubated for 24 hrs by Western blot analysis; assay type: functional, cell-based
[9] = tested on: INS1; assay: Upregulation of PPARgamma protein expression in rat INS1 cells at 5 uM incubated for 24 hrs by Western blot analysis; assay type: functional, cell-based
[10] = Induction of glucose stimulated insulin secretion in rat INS1 cells assessed as increase in insulin level at 2.5 uM incubated for 1 hr; assay type: functional
[11] = tested on: INS1; assay: Upregulation of PDX-1 protein expression in rat INS1 cells at 5 uM incubated for 24 hrs by Western blot analysis; assay type: functional, cell-based
[12] = tested on: INS1; assay: Upregulation of AKT protein expression in rat INS1 cells at 5 uM incubated for 24 hrs by Western blot analysis; assay type: functional, cell-based
[13] = tested on: INS1; assay: Upregulation of PI3K protein expression in rat INS1 cells at 5 uM incubated for 24 hrs by Western blot analysis; assay type: functional, cell-based
[14] = tested on: INS1; assay: Upregulation of IRS-2 protein expression in rat INS1 cells at 5 uM incubated for 24 hrs by Western blot analysis; assay type: functional, cell-based

Row | SMILES | Activity [1] | Activity [2] | Activity [3] | also measured
1 | C=CC(C)(C)[C@@]12C=C(O)C(=O)N3/C(=C/c4cnc[nH]4)C(=O)N[C@]31N(OC)c1ccccc12 | Non-Toxic | – | – | –
2 | C=CC(C)(C)[C@@]12C=C(O)C(=O)N3/C(=C/c4c[nH]cn4)C(=O)N[C@]31N(O)c1ccccc12 | Non-Toxic | 12.86 ng/mL | 12.05 ng/mL | –
3 | Cc1ccc(S(=O)(=O)NC(=O)NN2CC3CCCC3C2)cc1 (stereo unspecified) [GLICLAZIDE] | – | 20.85 ng/mL | 9.69 ng/mL | –
4 | COC(=O)[C@@]12Oc3ccc(-c4ccc5c(c4O)C(=O)C4=C(O)C[C@H](C)[C@@H](O)[C@]4(C(=O)OC)O5)c(O)c3C(=O)C1=C(O)C[C@H](C)[C@H]2O | Non-Toxic | – | – | –
5 | CC(O)c1nc2ccccc2c(=O)[nH]1 (stereo unspecified) | Non-Toxic | – | – | –
6 | Cc1cc(O)c2c(c1)C(=O)c1cc(O)cc(O)c1C2=O [EMODIN] | Non-Toxic | – | – | –
7 | C/C=C/CCC(=O)c1cc(C)c(O)c(C)c1O | Non-Toxic | 15.57 ng/mL | 8.92 ng/mL | Activity [4]: Active; Activity [5]: Active; Activity [6]: Active; Activity [7]: Active; Activity [8]: Active
8 | Cc1cc(O)c2c(c1)C(=O)c1cccc(O)c1C2=O [CHRYSOPHANOL] | Non-Toxic | 24.23 ng/mL | 20.01 ng/mL | Activity [9]: Active; Activity [10]: 8.81 ng/mL; Activity [11]: Active; Activity [12]: Active; Activity [13]: Active; Activity [14]: Active
